Among the data in ChEMBL document CHEMBL1146787, “Novel nonpeptidic inhibitors of HIV-1 protease obtained via a new multicomponent chemistry strategy” (Bioorg Med Chem Lett, 2004) are IC50 values, retold here.

pIC50: −log10 of the molar value. Some results are limits rather than exact numbers.

Test [1] deals with T1, Human immunodeficiency virus type 1 protease (Human immunodeficiency virus 1, UniProt Q72874). Briefly: Inhibitory concentration against Protease.
The target of test [2] is T1, Human immunodeficiency virus type 1 protease. The test can be described thus: Evaluated for inhibition of Protease after CLND/MS correction from the crude mixture.
Test [3] has the same target. Briefly: Evaluated for inhibition of Protease after resynthesis and purification.
For test [4] the target is unchanged. Briefly: Evaluated for inhibition of Protease from the crude plate mixture.

What is called pIC50 is the IC50 on a negative log10 scale, so that one unit is a factor of ten. `CC(C)(C)NC(=O)C1(CCc2ccccc2)OC(O)=C(CCc2ccccc2)C1=O` (configuration not stated): the pIC50 in test [1] was 5.52.

In test [1], `CC(C)(C)NC(=O)C1(C)OC(O)=C(CCc2ccccc2)C1=O` (configuration not stated) gave a pIC50 of 4.15.

In test [1], `CC(C)(C)NC(=O)C1(CCc2ccccc2)OC(O)=C(Cc2ccccc2)C1=O` (configuration not stated) showed a pIC50 of 4.96.

As for `CC(C)=CCCC(C)C1=C(O)C(CCc2ccccc2)(C(=O)NC(C)(C)C)OC1=O` (configuration not stated), the pIC50 in test [1] was 6.00; in test [2], 5.89; in test [3], 5.89; in test [4] it was 4.82.

In test [1], `CC(C)(C)NC(=O)C1(CCc2ccccc2)OC(O)=C(c2ccc(-c3ccccc3)cc2)C1=O` (configuration not stated) showed a pIC50 of 4.57.

Compound `CNC(=O)C1(C)OC(O)=C(C(C)c2ccccc2)C1=O` (configuration not stated) had a pIC50 in test [1] of 3.61.

Compound `CCCCNC(=O)C1(C)OC(O)=C(CCc2ccccc2)C1=O` (configuration not stated) gave a pIC50 in test [1] below 4.00.

Compound `CC(C1=C(O)C(C)(C(=O)NC(C)(C)C)OC1=O)c1ccccc1` (configuration not stated) showed a pIC50 in test [1] of 3.98.

In turn, `CC(C1=C(O)OC(C(=O)NCCc2ccc(Cl)cc2)(C(C)C)C1=O)c1ccccc1` (configuration not stated) had a pIC50 in test [1] of 4.51.

As to `COc1cc(CC2=C(O)C(C)(C(=O)NC(C)(C)C)OC2=O)cc(OC)c1OC` (configuration not stated), the pIC50 in test [1] is below 3.00.

For `CN(C(=O)OC(C)(C)C)C1=C(O)C(CCc2ccccc2)(C(=O)NC(C)(C)C)OC1=O` (configuration not stated), the pIC50 in test [1] is 4.33.

`CC(C)(C)NC(=O)C1(CCc2ccccc2)OC(O)=C(c2c[nH]c3ccccc23)C1=O` (configuration not stated) had a pIC50 in test [1] of 3.97.

As for `C[C@H](C1=C(O)[C@@](CCc2ccccc2)(C(=O)NCc2ccc(C(C)(C)C)cc2)OC1=O)c1ccccc1`, the pIC50 in test [3] was 5.27.

Compound `CC(C1=C(O)[C@@](CCc2ccccc2)(C(=O)NCc2ccc(C(C)(C)C)cc2)OC1=O)c1ccccc1` (some centres not stated) showed a pIC50 in test [1] of 5.30.

`COCCNC(=O)C1(C)OC(O)=C(C(C)c2ccccc2)C1=O` (configuration not stated) had a pIC50 in test [1] of 3.65.

On to `CN(C(=O)OC(C)(C)C)C1=C(O)C(CCc2ccccc2)(C(=O)NCC2CCCO2)OC1=O` (configuration not stated), for which the pIC50 in test [1] is 3.71.

As for `CNC1=C(O)C(CCc2ccccc2)(C(=O)NCC2CCCO2)OC1=O` (configuration not stated), the pIC50 in test [1] is below 3.00.

In turn, `CC(C)(C)NC(=O)C1(CCc2ccccc2)OC(O)=C(c2ccc(C(C)(C)C)cc2)C1=O` (configuration not stated) showed a pIC50 in test [1] of 4.77.

In turn, `COc1cc(CC2=C(O)C(C)(C(=O)NC3CC3)OC2=O)cc(OC)c1OC` (configuration not stated) gave a negative logarithm of the IC50 (pIC50) in test [1] below 3.00.

As for `CC(C1=C(O)C(CCc2ccccc2)(C(=O)NC(C)(C)C)OC1=O)c1ccccc1` (configuration not stated), the pIC50 in test [1] was 5.40; in test [2], 5.39; in test [3], 5.70; in test [4], 5.22.

As to `CC1(C(=O)NC2CC2)OC(O)=C(CCc2ccccc2)C1=O` (configuration not stated), the pIC50 in test [1] was 3.53.

`CC(C)=CCCC(C)C1=C(O)C(C)(C(=O)NC(C)(C)C)OC1=O` (configuration not stated) had a pIC50 in test [1] of 3.82.

As to `COc1cc(CC2=C(O)C(CCc3ccccc3)(C(=O)NCC(C)(C)C)OC2=O)cc(OC)c1OC` (configuration not stated), in test [1], the pIC50 is below 3.00.

For `C[C@H](C1=C(O)C(CCc2ccccc2)(C(=O)NCc2ccc(C(C)(C)C)cc2)OC1=O)c1ccccc1` (single isomer, unassigned), the pIC50 in test [1] is 4.08; in test [2], 5.92; in test [3], 5.34.
